Assay results published in ChEMBL document CHEMBL5653631, “A Potent and Selective ULK1 Inhibitor Suppresses Autophagy and Sensitizes Cancer Cells to Nutrient Stress” (iScience, 2018).
Blank lines part the entries; values can stand above or below the molecule they belong to.

Tests used:
[1] = molecular target: Activated CDC42 kinase 1 (Homo sapiens) (UniProt Q07912); assay: Inhibition of human recombinant ACK at 500 nM related to control ULK1
[2] = molecular target: T1, Serine/threonine-protein kinase haspin (Homo sapiens) (UniProt Q8TF76); assay: Inhibition of human recombinant Haspin at 500 nM in presence of ATP by radiometric assay relative to control
T1 sequence (whole entry): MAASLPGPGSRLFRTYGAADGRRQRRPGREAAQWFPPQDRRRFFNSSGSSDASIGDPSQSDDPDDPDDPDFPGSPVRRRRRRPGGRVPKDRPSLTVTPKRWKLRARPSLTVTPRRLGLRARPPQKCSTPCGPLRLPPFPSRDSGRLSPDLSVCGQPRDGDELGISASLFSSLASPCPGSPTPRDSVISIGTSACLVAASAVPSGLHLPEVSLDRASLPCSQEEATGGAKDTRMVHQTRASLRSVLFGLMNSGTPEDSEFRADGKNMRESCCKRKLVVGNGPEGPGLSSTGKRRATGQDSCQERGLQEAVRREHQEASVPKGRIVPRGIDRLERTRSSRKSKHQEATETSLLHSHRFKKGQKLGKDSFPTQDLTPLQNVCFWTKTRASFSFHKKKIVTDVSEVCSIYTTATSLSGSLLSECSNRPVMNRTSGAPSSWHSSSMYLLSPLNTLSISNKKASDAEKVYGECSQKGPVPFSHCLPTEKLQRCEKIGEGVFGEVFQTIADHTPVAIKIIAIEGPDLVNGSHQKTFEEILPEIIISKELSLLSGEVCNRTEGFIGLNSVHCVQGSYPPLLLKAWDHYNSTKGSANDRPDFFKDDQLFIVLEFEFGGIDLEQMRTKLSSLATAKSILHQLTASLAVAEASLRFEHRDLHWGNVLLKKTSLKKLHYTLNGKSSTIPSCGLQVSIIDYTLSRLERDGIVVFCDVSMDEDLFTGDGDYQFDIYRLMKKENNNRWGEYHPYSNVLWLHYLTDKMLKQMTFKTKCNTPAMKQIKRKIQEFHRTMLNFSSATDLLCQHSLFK

[3] = molecular target: Calcium/calmodulin-dependent protein kinase type II subunit alpha (Homo sapiens) (UniProt Q9UQM7); assay: Inhibition of human recombinant CaMK2a at 500 nM related to control ULK1
[4] = molecular target: RAF proto-oncogene serine/threonine-protein kinase (Homo sapiens) (UniProt P04049); assay: Inhibition of human recombinant RAF1 at 40 nM related to control ULK1
Chain of RAF proto-oncogene serine/threonine-protein kinase (Homo sapiens) (P04049 whole entry): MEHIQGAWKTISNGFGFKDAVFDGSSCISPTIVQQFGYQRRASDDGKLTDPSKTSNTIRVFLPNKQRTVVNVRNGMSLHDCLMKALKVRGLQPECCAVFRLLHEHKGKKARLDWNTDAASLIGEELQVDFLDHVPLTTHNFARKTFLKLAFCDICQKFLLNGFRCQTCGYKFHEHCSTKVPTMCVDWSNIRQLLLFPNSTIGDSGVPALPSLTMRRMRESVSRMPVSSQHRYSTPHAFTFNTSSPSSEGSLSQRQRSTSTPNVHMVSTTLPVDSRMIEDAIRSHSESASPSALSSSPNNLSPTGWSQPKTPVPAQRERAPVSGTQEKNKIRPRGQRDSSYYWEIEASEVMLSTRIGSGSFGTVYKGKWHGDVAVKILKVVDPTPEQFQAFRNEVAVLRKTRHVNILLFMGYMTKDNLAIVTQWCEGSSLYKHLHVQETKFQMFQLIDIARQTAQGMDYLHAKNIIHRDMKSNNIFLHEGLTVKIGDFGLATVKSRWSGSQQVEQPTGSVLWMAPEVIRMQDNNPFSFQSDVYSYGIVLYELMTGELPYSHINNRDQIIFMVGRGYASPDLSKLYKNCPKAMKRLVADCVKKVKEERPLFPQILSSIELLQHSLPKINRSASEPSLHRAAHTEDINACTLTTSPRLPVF

[5] = molecular target: T2, Inhibitor of nuclear factor kappa-B kinase subunit epsilon (Homo sapiens) (UniProt Q14164); assay: Inhibition of human recombinant IKKe at 40 nM related to control ULK1
T2 sequence (whole entry): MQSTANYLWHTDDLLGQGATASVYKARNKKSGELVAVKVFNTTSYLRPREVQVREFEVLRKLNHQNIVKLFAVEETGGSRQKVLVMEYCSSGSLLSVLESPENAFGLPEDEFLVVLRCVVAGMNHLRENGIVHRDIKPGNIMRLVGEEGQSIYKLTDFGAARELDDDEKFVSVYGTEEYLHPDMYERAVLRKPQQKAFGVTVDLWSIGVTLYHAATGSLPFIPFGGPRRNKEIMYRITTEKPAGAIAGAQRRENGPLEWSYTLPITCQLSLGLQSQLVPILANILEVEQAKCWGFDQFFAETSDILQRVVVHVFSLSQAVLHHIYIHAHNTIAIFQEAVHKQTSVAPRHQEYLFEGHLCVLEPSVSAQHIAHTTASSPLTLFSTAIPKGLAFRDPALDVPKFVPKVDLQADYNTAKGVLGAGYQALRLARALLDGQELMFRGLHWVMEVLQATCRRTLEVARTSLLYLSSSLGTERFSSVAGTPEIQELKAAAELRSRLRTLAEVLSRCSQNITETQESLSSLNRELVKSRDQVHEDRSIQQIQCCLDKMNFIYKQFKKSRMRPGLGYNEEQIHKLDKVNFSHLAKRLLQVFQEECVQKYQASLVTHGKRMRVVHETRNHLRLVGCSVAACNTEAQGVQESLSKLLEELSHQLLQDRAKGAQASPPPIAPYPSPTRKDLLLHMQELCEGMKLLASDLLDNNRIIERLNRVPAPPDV

[6] = molecular target: Cyclin-dependent kinase 4 (Homo sapiens) (UniProt P11802); assay: Inhibition of human recombinant CDK4 at 40 nM related to control ULK1
[7] = molecular target: Rho-associated protein kinase 2 (Homo sapiens) (UniProt O75116); assay: Inhibition of human recombinant ROCK2 at 40 nM in presence of ATP by radiometric assay relative to control
Chain of Rho-associated protein kinase 2 (Homo sapiens) (O75116 whole entry, looked up): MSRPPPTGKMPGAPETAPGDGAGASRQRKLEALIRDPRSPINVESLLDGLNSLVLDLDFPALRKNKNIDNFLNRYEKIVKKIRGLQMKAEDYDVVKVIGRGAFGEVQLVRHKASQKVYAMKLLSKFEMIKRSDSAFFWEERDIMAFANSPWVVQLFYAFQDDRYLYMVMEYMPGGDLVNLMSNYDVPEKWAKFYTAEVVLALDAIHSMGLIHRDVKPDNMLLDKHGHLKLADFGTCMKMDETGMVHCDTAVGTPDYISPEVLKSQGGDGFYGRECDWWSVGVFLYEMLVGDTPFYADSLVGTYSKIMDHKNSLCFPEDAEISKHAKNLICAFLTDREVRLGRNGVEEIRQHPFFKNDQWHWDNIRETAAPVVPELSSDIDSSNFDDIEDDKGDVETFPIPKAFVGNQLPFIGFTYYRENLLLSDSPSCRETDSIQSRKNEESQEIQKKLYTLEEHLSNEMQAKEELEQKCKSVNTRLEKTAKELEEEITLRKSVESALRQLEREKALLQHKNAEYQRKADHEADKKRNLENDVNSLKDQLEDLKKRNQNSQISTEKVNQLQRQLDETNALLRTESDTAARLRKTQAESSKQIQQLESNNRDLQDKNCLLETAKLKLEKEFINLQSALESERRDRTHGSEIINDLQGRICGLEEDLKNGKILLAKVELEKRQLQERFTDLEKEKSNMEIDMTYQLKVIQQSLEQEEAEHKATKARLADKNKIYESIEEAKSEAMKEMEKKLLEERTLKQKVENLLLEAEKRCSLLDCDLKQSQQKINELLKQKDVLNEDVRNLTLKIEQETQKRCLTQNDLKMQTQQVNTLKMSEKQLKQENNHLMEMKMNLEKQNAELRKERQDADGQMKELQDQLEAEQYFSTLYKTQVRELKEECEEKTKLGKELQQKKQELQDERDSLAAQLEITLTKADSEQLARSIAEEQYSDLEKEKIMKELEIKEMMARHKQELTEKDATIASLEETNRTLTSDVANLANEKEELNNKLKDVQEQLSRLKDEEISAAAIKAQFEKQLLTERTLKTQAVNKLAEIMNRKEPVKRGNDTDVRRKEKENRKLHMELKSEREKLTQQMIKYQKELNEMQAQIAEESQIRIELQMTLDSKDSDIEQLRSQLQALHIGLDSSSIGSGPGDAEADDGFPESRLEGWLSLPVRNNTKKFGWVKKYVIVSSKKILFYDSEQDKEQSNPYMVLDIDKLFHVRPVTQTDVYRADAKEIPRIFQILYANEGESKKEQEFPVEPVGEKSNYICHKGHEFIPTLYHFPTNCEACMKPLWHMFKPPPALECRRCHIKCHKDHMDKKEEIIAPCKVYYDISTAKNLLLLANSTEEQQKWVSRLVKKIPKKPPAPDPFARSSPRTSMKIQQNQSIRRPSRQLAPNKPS

[8] = molecular target: Myosin light chain kinase 2, skeletal/cardiac muscle (Homo sapiens) (UniProt Q9H1R3); assay: Inhibition of human recombinant skMLCK at 40 nM related to control ULK1
Chain of Myosin light chain kinase 2, skeletal/cardiac muscle (Homo sapiens) (Q9H1R3 whole entry): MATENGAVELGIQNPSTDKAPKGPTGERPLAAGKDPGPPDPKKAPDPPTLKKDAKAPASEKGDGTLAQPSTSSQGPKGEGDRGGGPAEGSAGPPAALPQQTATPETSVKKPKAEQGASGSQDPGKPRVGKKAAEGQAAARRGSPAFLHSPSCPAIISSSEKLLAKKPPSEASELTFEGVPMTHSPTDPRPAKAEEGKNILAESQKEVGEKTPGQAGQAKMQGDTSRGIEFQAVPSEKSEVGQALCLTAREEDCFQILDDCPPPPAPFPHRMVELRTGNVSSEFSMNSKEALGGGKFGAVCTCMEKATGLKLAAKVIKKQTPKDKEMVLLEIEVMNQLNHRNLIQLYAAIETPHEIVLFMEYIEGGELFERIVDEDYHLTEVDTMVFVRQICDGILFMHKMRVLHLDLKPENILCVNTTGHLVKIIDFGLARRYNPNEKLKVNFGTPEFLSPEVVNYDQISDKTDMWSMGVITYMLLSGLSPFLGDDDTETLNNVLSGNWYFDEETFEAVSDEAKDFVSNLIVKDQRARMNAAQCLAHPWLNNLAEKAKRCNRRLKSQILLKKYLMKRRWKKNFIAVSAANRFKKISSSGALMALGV

[9] = molecular target: Homeodomain-interacting protein kinase 1 (Homo sapiens) (UniProt Q86Z02); assay: Inhibition of human recombinant HIPK1 at 15 nM in presence of ATP by radiometric assay relative to control
[10] = molecular target: Protein kinase C eta type (Homo sapiens) (UniProt P24723); assay: Inhibition of human recombinant PKCH at 15 nM in presence of ATP by radiometric assay relative to control
Chain of Protein kinase C eta type (Homo sapiens) (P24723 whole entry): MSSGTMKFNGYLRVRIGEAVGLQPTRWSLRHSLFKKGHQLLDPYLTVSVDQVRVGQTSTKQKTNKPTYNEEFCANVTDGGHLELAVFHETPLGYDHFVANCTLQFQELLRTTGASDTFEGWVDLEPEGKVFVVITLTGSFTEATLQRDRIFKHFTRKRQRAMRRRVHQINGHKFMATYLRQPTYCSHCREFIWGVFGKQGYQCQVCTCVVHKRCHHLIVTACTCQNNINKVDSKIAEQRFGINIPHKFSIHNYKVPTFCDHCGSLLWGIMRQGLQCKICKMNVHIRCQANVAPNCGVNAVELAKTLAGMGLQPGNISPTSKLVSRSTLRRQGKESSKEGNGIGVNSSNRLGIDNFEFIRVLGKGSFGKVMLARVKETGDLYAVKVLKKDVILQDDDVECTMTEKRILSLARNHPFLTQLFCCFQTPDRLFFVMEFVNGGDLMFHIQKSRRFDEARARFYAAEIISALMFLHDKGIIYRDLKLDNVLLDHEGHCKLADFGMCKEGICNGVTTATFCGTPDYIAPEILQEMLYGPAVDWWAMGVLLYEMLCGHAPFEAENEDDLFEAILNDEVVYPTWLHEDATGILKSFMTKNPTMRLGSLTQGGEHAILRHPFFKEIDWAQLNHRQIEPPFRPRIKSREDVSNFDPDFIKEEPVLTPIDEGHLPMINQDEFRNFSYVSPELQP

[11] = molecular target: 3-phosphoinositide-dependent protein kinase 1 (Homo sapiens) (UniProt O15530); assay: Inhibition of human recombinant PDK1 at 15 nM in presence of ATP by radiometric assay relative to control
Chain of 3-phosphoinositide-dependent protein kinase 1 (Homo sapiens) (O15530 whole entry, looked up): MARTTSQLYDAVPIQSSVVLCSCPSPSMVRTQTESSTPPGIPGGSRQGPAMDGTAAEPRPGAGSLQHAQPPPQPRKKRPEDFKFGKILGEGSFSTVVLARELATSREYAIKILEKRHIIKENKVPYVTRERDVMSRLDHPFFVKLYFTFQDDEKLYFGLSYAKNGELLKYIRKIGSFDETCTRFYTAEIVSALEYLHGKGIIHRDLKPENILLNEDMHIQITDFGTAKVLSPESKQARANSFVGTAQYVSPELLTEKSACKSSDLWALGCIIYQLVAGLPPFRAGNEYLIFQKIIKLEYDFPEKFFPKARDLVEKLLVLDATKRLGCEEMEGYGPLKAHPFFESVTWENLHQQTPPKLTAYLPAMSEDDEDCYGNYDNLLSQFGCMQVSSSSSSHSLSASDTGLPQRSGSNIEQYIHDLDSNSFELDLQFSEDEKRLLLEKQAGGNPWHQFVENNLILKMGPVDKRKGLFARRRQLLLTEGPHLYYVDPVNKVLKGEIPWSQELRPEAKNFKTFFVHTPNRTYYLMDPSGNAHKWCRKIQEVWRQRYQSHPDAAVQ

Chain of Activated CDC42 kinase 1 (Homo sapiens) (Q07912 whole entry, looked up): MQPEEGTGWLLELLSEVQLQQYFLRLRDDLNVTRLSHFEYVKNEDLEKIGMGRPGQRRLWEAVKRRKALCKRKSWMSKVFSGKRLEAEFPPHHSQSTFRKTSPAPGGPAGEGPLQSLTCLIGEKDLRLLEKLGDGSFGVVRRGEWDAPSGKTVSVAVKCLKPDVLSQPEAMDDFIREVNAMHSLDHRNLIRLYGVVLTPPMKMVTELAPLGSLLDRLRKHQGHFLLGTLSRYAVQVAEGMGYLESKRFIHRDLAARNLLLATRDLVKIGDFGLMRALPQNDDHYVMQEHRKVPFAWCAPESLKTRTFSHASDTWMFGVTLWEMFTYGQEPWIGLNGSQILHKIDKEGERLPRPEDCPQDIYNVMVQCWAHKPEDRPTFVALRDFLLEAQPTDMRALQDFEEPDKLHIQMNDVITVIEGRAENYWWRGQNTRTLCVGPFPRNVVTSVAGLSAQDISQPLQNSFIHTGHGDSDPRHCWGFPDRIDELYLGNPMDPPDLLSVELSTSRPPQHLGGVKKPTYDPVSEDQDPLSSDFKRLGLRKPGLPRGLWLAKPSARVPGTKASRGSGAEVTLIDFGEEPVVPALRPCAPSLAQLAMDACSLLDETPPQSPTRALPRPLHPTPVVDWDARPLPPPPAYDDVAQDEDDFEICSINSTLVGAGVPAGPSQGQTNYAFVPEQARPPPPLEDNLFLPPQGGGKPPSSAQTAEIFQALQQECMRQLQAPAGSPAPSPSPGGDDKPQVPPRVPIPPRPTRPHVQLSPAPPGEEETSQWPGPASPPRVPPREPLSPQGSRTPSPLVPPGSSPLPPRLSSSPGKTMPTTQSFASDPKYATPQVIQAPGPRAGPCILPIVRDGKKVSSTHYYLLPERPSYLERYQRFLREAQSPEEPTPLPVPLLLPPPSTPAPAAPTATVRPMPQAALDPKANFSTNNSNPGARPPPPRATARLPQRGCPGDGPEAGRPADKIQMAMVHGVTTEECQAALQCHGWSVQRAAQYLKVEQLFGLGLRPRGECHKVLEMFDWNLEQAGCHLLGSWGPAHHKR

fold change (FC) [1]: 0.42
inhibition [2]: 0%
fold change (FC) [3]: 0
Compound: CNC(=O)c1ccccc1Oc1nc(Nc2cc(OC)c(OC)c(OC)c2)ncc1Br

fold change (FC) [4]: 0.01
fold change (FC) [5]: 0.41
fold change (FC) [6]: 0
inhibition [7]: 2%
fold change (FC) [8]: 0
Compound: O=C(N[C@@H](C1CC1)C(F)(F)F)c1cc(-c2cnn3cc(-c4ccc(F)cc4)cnc23)cs1

inhibition [9]: 0%
inhibition [10]: 0%
inhibition [11]: 6%
Compound: CC(C)[C@H](NC(=O)c1cc(-c2cnn3cc(-c4ccc(OCCN5CCCCC5)cc4)cnc23)cs1)C(F)(F)F
